Laboratory results: paper PMC8081377 (Mutagenesis, 2021)
Like-named read-outs stand apart in the source and are kept apart here.

How the values were obtained:
[1] = tested on: EpiDerm™ EPI-200-MNA skin tissues; details: for top/maximum dose tested, limited by excessive or strong cytotoxicity: % VCC or % BN
RS tissues = details: cited from earlier work; for RSMN result with the 72-h protocol: contract research lab
[2] = tested on: EpiDerm™ EPI-200-MNA skin tissues
[3] = tested on: reconstructed human skin (RS) tissues; details: cited from earlier work; for detection of DNA damage, RS Comet assay versus RSMN assay: direct treatment with genotoxic metabolites of 2-AAF
[4] = topically-applied; cited from earlier work
[5] = tested on: CHO, CHL, V79, HuLy cells; details: cited from earlier work
[6] = tested on: V79, CHO, CHL, HuLy, TK6, HepG2, L5178Y cells; details: cited from earlier work
[7] = cited from earlier work
mouse lymphoma cells = details: cited from earlier work
stomach, liver = details: rats, daily treatment for 3 days, initial evaluation; cited from earlier work
multiple tissues = details: mice, single i.p. injection; cited from earlier work
[8] = multiple treatments of RS tissues
[9] = three treatments, vs solvent control
[10] = two treatments, vs solvent control

In the case of `Cc1c2ccccc2c(C)c2c1ccc1ccccc12` [7,12-Dimethylbenz[a]thracene (DMBA), 7,12-Dimethylbenz[a]anthracene], the “top dose, limited by precipitation on the surface of the skin tissues” value ([1]; lab(s) as stated in the text) is listed as 240 µg/cm^2, the “result in a previous RSMN study” value (RS tissues; % VCC not used as cytotoxicity measure, higher doses tested) is listed as “positive” and the “% MN-BN response in individual experiment(s), Lab A, 48-h protocol” value (“% MN-BN response … Lab A, 48-h protocol” for short) [2] is listed as “did not increase”. For the same compound, the “% MN-BN response in individual experiment(s), Lab A, 72-h protocol” value (from here on “% MN-BN response … Lab A, 72-h protocol”) [2] was “did not induce an increase” and the “classification in the RSMN assay by Lab A” value (from here on “classification … by Lab A”) [2] was “negative”.

In the case of `CC(=O)N(O)c1ccc2c(c1)Cc1ccccc1-2` [N-hydroxy-2-acetylaminofluorene], the “detection of DNA damage, RS Comet assay versus RSMN assay” value [3] is given as “more efficiently detected in the RS Comet assay than in the RSMN assay”.

For `CC(=O)Nc1ccc2c(c1)Cc1ccccc1-2` [2-Acetylaminofluorene (2-AAF), 2-Acetylaminofluorene], the “DNA damage in the RS Comet assay” value [3] is given as “weak, but statistically significant and reproducible increase in DNA damage”, the “response in the RS Comet assay” value [3, 8] is given as “significant response” and the “response in the RSMN assay” value (RS tissues; [8]) is given as “not in the RSMN assay”. For the same compound, the “metabolism in human skin explants” value [4] was “evidence for metabolism”, the “classification in the RSMN assay by Lab B” value (from here on “classification … by Lab B”) ([2]; overall call) was “negative” and the “classification in the RSMN assay by Lab C” value ([2]; overall call) was “negative”. The “classification in the RSMN assay by Lab D” value ([2]; overall call) was “negative”, the “% MN-BN response in individual experiment(s), Lab B, 72-h protocol” value (“% MN-BN response … Lab B, 72-h protocol” for short) [2, 9] was “without a significant response” and the “% MN-BN response in individual experiment(s), Lab C, 72-h protocol” value [2, 9] was “without a significant response”. The “% MN-BN response in individual experiment(s), Lab B, 48-h protocol” value (from here on “% MN-BN response … Lab B, 48-h protocol”) [2, 10] was “without a significant response”, the “% MN-BN response in individual experiment(s), Lab C, 48-h protocol” value (from here on “% MN-BN response … Lab C, 48-h protocol”) [2, 10] was “without a significant response” and the “% MN-BN response in individual experiment(s), Lab D, 48-h protocol” value [2, 10] was “no significant increase”.

For `ONc1ccc2c(c1)Cc1ccccc1-2` [N-hydroxy-2-aminofluorene], the “detection of DNA damage, RS Comet assay versus RSMN assay” value [3] is listed as “more efficiently detected in the RS Comet assay than in the RSMN assay”.

For `C=CCc1ccc(O)c(OC)c1` [Eugenol], the “in vitro chromosome aberration tests” value ([5]; ref Supplementary Table S1) is listed as “positive findings”, the “top/maximum dose tested, limited by excessive or strong cytotoxicity” value (from here on “top/maximum dose tested, limited”) ([1]; lab(s) as stated in the text) is listed as 80–100 µg/cm^2 and the “in vitro MN tests” value ([6]; ref Supplementary Table S1) is listed as “positive findings”. For the same compound, the carcinogenicity tests ([7]; ref Supplementary Table S1) was “negative”, the “classification … by Lab A” value ([2]; overall call) was “positive” and the “% MN-BN response … Lab A, 72-h protocol” value [2, 9] was “significant increase in the % MN-BN was seen at the two highest doses”. The “% MN-BN response … Lab A, 48-h protocol” value [2, 10] was “significant increase in % MN-BN only at one mid-dose”.

For `Nc1ccn([C@@H]2O[C@H](CO)[C@@H](O)[C@@H]2O)c(=O)n1` [Cytosine arabinoside], the “in vitro chromosome aberration tests” value [5] is listed as “positive”, the “top/maximum dose tested, limited” value ([1]; lab(s) as stated in the text) is listed as 48 µg/cm^2 and the “in vitro MN tests” value [6] is listed as “positive”. The “classification … by Lab B” value ([2]; overall call) was “negative”, the “% MN-BN response … Lab B, 72-h protocol” value [2, 9] was “Negative results” and the “% MN-BN response … Lab B, 48-h protocol” value [2, 10] was “did not show a significant increase”.

For `c1ccc2c(c1)cc1ccc3cccc4ccc2c1c34` [B[a]P], the “RSMN result with the 72-h protocol” value (RS tissues) is given as “positive results”.

For `O=P1(N(CCCl)CCCl)NCCCO1` (stereo not drawn) [cyclophosphamide], the “RSMN result with the 72-h protocol” value (RS tissues) is given as “positive results”.

In the case of `C1=Cc2cc3cccc4ccc5ccc1c2c5c43` [Cyclopenta[c,d]pyrene (CPPE), Cyclopenta[c,d]pyrene], the “maximum dose tested without exceeding the cytotoxicity thresholds” value ([1]; lack of excessive cytotoxicity, 48-h protocol) is listed as 1600 µg/cm^2, the “mouse lymphoma assay” value (mouse lymphoma cells) is listed as “positive” and the skin tumours ([7]; mice, dermal application, ref Supplementary Table S1) is listed as “induce skin tumours”. For the same compound, the “classification … by Lab B” value ([2]; overall call) was “positive”, the “% MN-BN response … Lab B, 72-h protocol” value [2, 9] was “significant increase” and the “% MN-BN response … Lab C, 48-h protocol” value [2, 10] was “negative results”.

For `[Cl][Cd][Cl]` [Cadmium chloride (CdCl2), Cadmium chloride], the “top/maximum dose tested, limited” value ([1]; lab(s) as stated in the text) is listed as 160 µg/cm^2, the “doses that caused 50% cytotoxicity” value ([1]; Lab A, 48-h protocol, Phase 2c) is listed as 100–160 µg/cm^2 and the “in vivo comet assay result, stomach” value (stomach, liver) is listed as “positive”. For the same compound, the “in vivo comet assay result, multiple tissues” value (multiple tissues) was “negative results”, the “classification … by Lab A” value ([2]; overall call) was “positive” and the “classification … by Lab B” value ([2]; overall call) was “negative”. For the same compound, the “classification in the RSMN assay by Lab C” value ([2]; overall call) was “positive”, the “% MN-BN response … Lab A, 72-h protocol” value [2, 9] was “clear increase” and the “% MN-BN response … Lab B, 72-h protocol” value [2, 9] was “negative results”. For the same compound, the “% MN-BN response … Lab A, 48-h protocol” value [2, 10] was “without any significant increase”, the “% MN-BN response … Lab B, 48-h protocol” value [2, 10] was “No detectable increase” and the “% MN-BN response … Lab C, 48-h protocol” value [2, 10] was “negative”.

In the case of `Cn1c(N)nc2c3cccnc3ccc21` [2-Amino-3-methylimidazo[4,5-f]quinolone], the “detection in the RS Comet assay” value ([3]; after multiple treatments) is listed as “not detected”, the “% BN (excessive cytotoxicity)” value ([1]; at ≥150 µg/cm^2, 48-h protocol, Lab A) is listed as under 20 % BN and the IARC class ([7]; carcinogen classification) is listed as 2A. For the same compound, the “% MN-BN response … Lab A, 72-h protocol” value [2, 9] was “Significant increases” and the “% MN-BN response … Lab A, 48-h protocol” value [2, 10] was “no increase”.
